Test results from ChEMBL document CHEMBL5236603, “Discovery of mobocertinib, a potent, oral inhibitor of EGFR exon 20 insertion mutations in non-small cell lung cancer” (Bioorg Med Chem Lett, 2023).

What was measured:
[1] = molecular target: Tyrosine-protein kinase BTK (Homo sapiens) (UniProt Q06187); assay: Inhibition of human BTK at 1 uM by hotspot assay relative to control
[2] = molecular target: T1, Tyrosine-protein kinase Tec (Homo sapiens) (UniProt P42680); assay: Inhibition of human TEC at 1 uM by hotspot assay relative to control
T1 sequence (whole entry): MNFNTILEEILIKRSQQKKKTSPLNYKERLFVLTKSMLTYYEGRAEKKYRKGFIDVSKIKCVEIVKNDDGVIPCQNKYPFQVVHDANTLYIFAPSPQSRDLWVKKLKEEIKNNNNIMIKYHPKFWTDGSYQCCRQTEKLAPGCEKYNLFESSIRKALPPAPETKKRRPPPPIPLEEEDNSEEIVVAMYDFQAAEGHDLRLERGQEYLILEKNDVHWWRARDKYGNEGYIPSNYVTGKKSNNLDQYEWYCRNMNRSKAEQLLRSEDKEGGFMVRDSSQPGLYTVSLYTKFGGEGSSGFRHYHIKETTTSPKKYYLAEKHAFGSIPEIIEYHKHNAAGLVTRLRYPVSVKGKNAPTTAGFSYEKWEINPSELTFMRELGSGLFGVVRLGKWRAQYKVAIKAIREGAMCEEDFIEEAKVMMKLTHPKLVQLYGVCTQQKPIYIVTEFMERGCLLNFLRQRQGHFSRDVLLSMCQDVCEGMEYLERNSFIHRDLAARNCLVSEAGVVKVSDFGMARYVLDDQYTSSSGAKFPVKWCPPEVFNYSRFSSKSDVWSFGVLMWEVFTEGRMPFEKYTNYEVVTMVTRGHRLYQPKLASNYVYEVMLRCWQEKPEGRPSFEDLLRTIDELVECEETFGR

[3] = AUClast in CD-1 mouse at 10 mg/kg, po by LC/MS/MS analysis; format: ADME, organism-based; design: dose 10 mg/kg, route po; conditions: in vivo
[4] = molecular target: T2, Cytoplasmic tyrosine-protein kinase BMX (Homo sapiens) (UniProt P51813); assay: Inhibition of human BMX at 1 uM by hotspot assay relative to control
T2 sequence (whole entry): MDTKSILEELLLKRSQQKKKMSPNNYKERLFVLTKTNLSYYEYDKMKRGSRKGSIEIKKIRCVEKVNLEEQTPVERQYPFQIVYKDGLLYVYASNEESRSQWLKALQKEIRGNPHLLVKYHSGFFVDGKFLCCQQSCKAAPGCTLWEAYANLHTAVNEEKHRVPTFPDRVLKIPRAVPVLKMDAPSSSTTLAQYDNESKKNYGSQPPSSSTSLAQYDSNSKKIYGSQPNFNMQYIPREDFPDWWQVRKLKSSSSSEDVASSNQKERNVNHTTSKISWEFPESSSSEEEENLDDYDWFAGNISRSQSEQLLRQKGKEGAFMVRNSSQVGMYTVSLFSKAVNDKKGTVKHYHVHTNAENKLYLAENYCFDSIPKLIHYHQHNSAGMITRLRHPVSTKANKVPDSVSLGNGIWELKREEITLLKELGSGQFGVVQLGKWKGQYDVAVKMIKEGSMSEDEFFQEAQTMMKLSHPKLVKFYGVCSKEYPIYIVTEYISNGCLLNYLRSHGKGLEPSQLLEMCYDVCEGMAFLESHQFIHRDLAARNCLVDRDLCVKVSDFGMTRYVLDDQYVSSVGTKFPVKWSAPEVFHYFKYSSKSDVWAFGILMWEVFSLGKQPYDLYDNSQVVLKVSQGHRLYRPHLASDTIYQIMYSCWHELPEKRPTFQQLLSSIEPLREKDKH

[5] = system: BaF3; assay: Anticancer activity against parental mouse BaF3 cells assessed as cell viability incubated for 3 days by Cell Titer-Glo assay; format: functional, cell-based; conditions: BaF3, 72 h
[6] = molecular target: Receptor tyrosine-protein kinase erbB-4 (Homo sapiens) (UniProt Q15303); assay: Inhibition of human HER4 at 1 uM by hotspot assay relative to control
Chain of Receptor tyrosine-protein kinase erbB-4 (Homo sapiens) (Q15303 whole entry): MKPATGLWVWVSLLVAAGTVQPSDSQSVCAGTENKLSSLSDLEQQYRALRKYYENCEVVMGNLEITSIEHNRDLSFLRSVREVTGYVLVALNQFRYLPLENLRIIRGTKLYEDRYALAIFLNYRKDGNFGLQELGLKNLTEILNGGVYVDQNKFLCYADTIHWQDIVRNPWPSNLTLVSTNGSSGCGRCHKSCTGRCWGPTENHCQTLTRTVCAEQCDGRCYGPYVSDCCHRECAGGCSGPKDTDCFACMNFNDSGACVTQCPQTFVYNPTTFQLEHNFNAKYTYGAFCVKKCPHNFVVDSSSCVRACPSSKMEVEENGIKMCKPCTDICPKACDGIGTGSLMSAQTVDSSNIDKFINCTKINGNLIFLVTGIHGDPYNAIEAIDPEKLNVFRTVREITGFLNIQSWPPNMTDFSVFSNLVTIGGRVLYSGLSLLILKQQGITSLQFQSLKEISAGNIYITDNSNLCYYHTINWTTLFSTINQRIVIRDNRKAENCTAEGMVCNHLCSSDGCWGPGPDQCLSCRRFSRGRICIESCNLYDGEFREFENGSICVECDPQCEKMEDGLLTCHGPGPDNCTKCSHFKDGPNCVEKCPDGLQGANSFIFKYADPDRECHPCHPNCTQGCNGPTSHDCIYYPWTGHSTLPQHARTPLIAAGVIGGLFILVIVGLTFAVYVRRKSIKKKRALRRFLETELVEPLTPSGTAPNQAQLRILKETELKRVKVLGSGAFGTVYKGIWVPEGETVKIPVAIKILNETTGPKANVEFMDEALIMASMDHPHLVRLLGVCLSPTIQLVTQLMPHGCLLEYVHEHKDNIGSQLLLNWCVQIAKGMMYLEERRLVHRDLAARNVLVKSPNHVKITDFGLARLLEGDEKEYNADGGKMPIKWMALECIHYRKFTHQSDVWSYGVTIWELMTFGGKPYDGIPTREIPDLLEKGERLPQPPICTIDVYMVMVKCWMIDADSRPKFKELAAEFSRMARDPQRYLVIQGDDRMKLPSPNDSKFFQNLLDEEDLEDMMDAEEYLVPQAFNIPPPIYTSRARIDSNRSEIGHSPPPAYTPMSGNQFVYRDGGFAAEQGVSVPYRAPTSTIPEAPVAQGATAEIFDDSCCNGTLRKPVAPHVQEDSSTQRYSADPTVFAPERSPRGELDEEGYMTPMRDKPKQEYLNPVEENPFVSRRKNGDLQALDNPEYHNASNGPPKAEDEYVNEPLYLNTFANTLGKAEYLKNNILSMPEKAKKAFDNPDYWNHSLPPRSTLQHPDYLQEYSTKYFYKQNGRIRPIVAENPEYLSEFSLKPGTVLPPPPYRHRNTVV

[7] = Inhibition of mouse EGFR S768_D770dup D770_N771insSVD (SVD) mutant stably expressed in mouse BaF3 cells assessed as cell viability incubated for 3 days by Cell Titer-Glo assay; format: cell-based; conditions: BaF3, 72 h
[8] = Inhibition of mouse EGFR L858R-T790M mutant stably expressed in mouse BaF3 cells assessed as cell viability incubated for 3 days by Cell Titer-Glo assay; format: cell-based; conditions: BaF3, 72 h
[9] = Toxicity in SCID mouse assessed as body weight change at 100 mg/kg, po administered for 7 consecutive days; format: organism-based; conditions: in vivo
[10] = molecular target: T3, Tyrosine-protein kinase ITK/TSK (Homo sapiens) (UniProt Q08881); assay: Inhibition of human ITK at 1 uM by hotspot assay relative to control
T3 sequence (whole entry): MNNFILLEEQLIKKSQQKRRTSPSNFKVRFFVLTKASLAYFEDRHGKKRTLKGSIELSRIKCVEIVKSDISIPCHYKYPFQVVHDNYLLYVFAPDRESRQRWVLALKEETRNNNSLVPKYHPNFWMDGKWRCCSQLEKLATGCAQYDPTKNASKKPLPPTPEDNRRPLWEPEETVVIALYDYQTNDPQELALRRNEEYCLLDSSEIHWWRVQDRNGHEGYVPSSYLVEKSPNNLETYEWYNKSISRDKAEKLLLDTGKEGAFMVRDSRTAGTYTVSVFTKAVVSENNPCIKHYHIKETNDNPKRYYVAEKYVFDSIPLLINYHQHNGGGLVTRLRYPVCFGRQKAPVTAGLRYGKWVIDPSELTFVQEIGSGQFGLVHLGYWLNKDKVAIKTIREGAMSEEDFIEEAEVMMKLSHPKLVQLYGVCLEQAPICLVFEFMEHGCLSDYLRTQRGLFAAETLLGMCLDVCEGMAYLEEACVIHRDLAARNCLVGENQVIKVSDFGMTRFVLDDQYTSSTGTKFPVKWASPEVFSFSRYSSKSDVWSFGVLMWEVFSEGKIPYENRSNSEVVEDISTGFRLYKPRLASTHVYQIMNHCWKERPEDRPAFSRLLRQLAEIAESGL

[11] = Inhibition of mouse EGFR V769_D770insASV mutant stably expressed in mouse BaF3 cells assessed as cell viability incubated for 3 days by Cell Titer-Glo assay; format: cell-based; conditions: BaF3, 72 h
[12] = system: BaF3; assay: In vivo antitumor activity against mouse BaF3 cells expressing EGFR exon 20 insertion (ex20ins) ASV implanted in SCID mouse assessed as tumor growth inhibition at 100 mg/kg, po administered for 7 consecutive days; format: functional; conditions: BaF3, 168 h, time 7 day, read-out: TGI

Chain of Tyrosine-protein kinase BTK (Homo sapiens) (Q06187 whole entry): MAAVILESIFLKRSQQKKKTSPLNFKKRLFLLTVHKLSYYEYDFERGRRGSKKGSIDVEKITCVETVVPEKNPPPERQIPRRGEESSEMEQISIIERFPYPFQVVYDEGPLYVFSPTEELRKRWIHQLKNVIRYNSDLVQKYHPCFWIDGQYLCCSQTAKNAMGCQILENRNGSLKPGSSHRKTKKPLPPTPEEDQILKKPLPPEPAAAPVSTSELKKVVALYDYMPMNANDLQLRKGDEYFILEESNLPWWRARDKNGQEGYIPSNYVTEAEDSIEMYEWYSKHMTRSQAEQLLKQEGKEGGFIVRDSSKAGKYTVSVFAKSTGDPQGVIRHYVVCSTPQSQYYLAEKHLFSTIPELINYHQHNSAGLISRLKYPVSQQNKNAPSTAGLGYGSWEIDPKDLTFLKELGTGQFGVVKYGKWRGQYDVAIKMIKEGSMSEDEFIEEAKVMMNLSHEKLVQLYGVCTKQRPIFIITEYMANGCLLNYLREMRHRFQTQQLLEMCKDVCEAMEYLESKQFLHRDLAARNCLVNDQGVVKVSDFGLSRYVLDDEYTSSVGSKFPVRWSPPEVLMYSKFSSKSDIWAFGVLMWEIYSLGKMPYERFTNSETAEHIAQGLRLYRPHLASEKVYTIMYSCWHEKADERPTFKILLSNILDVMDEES

inhibition [1]: > 81%
inhibition [2]: > 81%
AUC(0-t) [3]: 341 ng·h/mL
inhibition [4]: > 81%
inhibition [6]: > 97%
inhibition [10]: > 81%
Structure (SMILES): C=CC(=O)Nc1cc(Nc2ncc(C(=O)OC(C)C)c(-c3cn(C)c4ccccc34)n2)c(OC)cc1N(C)CCN(C)C [MOBOCERTINIB]
IC50 [5]: 3950 nM
IC50 [7]: 22.5 nM
IC50 [8]: 21.3 nM
Activity [9]: Non-Toxic
IC50 [11]: 11 nM
inhibition in vivo at 100 mg/kg [12]: 89%
